Results: ChEMBL document CHEMBL1201862, “PubChem BioAssay data set” (2004)
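Growth conditions: 96-well plates. Treatment: test compound, 48 hours, 5 concentrations. Analysis: linear interpolation between bracketing concentrations; unreached endpoints set to highest concentration. GI50: concentration for 50% inhibition of growth.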 Active and inactive are the calls of the source. Rule as the data show it: active = GI50 up to about 1.1 µM and inactive = higher. Non-standard residues stand in square brackets, D forms with d. Residues, ends and D or L forms follow the SMILES beside them. *: point of attachment. X30 = COC1=CC(=O)N(C(=O)[C@@H](O*)C(C)C)[C@H]1Cc1ccccc1; NMeL = CN[C@@H](CC(C)C)C(=O)O; Cbz = O=C(OCc1ccccc1)*

Legend:
Experiment in all cases: inhibition of tumour cell growth, NCI panel, 48 h
[1] = test system: CAKI-1
[2] = test system: SN12C
[3] = test system: DU-145
[4] = test system: M14
[5] = test system: T47D
[6] = test system: HT-29
[7] = test system: HL-60
[8] = test system: NCI-H522
[9] = test system: UACC-62
[10] = test system: HCT-15
[11] = test system: U-251
[12] = test system: MDA-N
[13] = test system: MDA-MB-231
[14] = test system: A498
[15] = test system: SF-268
[16] = test system: SK-MEL-2
[17] = test system: RXF 393
[18] = test system: COLO 205
[19] = test system: SK-MEL-5
[20] = test system: MOLT-4

Row | Structure (SMILES) | GI50 [1] | GI50 [2] | GI50 [3] | GI50 [4] | GI50 [5] | GI50 [6] | GI50 [7] | GI50 [8] | GI50 [9] | GI50 [10] [µM] | GI50 [11] | GI50 [12] | GI50 [13] | GI50 [14] | GI50 [15] | GI50 [16] | GI50 [17] | GI50 [18] | GI50 [19] | GI50 [20]
1 | COC1=CC(=O)N(C(=O)[C@@H](OC(=O)[C@@H]2CCCN2C(=O)[C@@H]2CCCN2C(=O)[C@H](CC(C)C)N(C)C(=O)[C@@H](NC(=O)[C@@H](NC(=O)OCc2ccccc2)C(C)C)C(C)C)C(C)C)[C@H]1Cc1ccccc1 (Cbz-VV[NMeL]PP-X30) | > 100 µM (inactive) | 34.8 µM (inactive) | > 100 µM (inactive) | 70.1 µM (inactive) | 68.2 µM (inactive) | > 100 µM (inactive) | > 100 µM (inactive) | > 100 µM (inactive) | 48.1 µM (inactive) | > 100 | 24.9 µM (inactive) | > 100 µM (inactive) | 15 µM (inactive) | 19.6 µM (inactive) | > 100 µM (inactive) | 9.42 µM (inactive) | 14.2 µM (inactive) | > 100 µM (inactive) |  | 
2 | CC(NC1=NCCO1)c1ccco1 (configuration not stated) | > 100 µM (inactive) | > 100 µM (inactive) | > 100 µM (inactive) | > 100 µM (inactive) | > 100 µM (inactive) | 93.8 µM (inactive) | > 100 µM (inactive) | > 100 µM (inactive) | > 100 µM (inactive) | > 100 | > 100 µM (inactive) | 95.9 µM (inactive) | > 100 µM (inactive) | > 100 µM (inactive) | > 100 µM (inactive) | 60.4 µM (inactive) | > 100 µM (inactive) | 79.8 µM (inactive) | 86.9 µM (inactive) | > 100 µM (inactive)
3 | O=C(O)CSc1nc2ccccc2[nH]1 | > 100 µM (inactive) | > 100 µM (inactive) | > 100 µM (inactive) | > 100 µM (inactive) | > 100 µM (inactive) | > 100 µM (inactive) |  | > 100 µM (inactive) | > 100 µM (inactive) | > 100 | > 100 µM (inactive) | > 100 µM (inactive) | > 100 µM (inactive) | > 100 µM (inactive) | > 100 µM (inactive) | 74.1 µM (inactive) | > 100 µM (inactive) |  |  | 6.25 µM (inactive)
4 | CC(=O)Nc1ccc(NS(=O)(=O)c2ccc3nc(C)n(NS(=O)(=O)c4ccc(NC(C)=O)cc4)c(=O)c3c2)cc1 | > 100 µM (inactive) | > 100 µM (inactive) | > 100 µM (inactive) | > 100 µM (inactive) | > 100 µM (inactive) | > 100 µM (inactive) | > 100 µM (inactive) | > 60.7 µM (inactive) | > 100 µM (inactive) | > 100 | > 100 µM (inactive) | > 100 µM (inactive) | > 100 µM (inactive) | > 100 µM (inactive) | > 100 µM (inactive) | > 100 µM (inactive) | > 100 µM (inactive) | > 100 µM (inactive) | > 100 µM (inactive) | > 100 µM (inactive)
5 | O=C1N(C2CCCCC2)C(=O)N1C1CCCCC1 | 1.04 µM (active) | 0.272 µM (active) | 0.126 µM (active) | 1.24 µM (inactive) | 0.56 µM (active) | 0.701 µM (active) | < 0.01 µM (active) | 0.328 µM (active) | 0.21 µM (active) | 0.257 | 0.388 µM (active) | 3.97 µM (inactive) | 1.33 µM (inactive) | 0.16 µM (active) | 0.75 µM (active) | 1.49 µM (inactive) |  | 0.467 µM (active) | 0.439 µM (active) | 0.0132 µM (active)
6 | CN(C)Cc1cc(C(=O)O)cc(CN(C)C)c1O | > 100 µM (inactive) | > 100 µM (inactive) | > 100 µM (inactive) | > 100 µM (inactive) | > 100 µM (inactive) | > 100 µM (inactive) | > 100 µM (inactive) | > 100 µM (inactive) | > 100 µM (inactive) | > 100 | > 100 µM (inactive) | > 100 µM (inactive) | > 100 µM (inactive) | > 100 µM (inactive) | > 100 µM (inactive) | > 100 µM (inactive) | > 100 µM (inactive) | > 100 µM (inactive) | > 100 µM (inactive) | 
7 | C=C1c2nc3ccccc3n2C=C(c2ccc(OC)cc2)N1c1ccc(OCCN2CCOCC2)cc1 | 90.6 µM (inactive) | > 61.8 µM (inactive) | > 54.8 µM (inactive) | 9.73 µM (inactive) | > 100 µM (inactive) | 6.24 µM (inactive) | 4.31 µM (inactive) | 1.43 µM (inactive) | 20.4 µM (inactive) | 6.15 | > 93.3 µM (inactive) | > 75.2 µM (inactive) | > 86.1 µM (inactive) | 66.8 µM (inactive) |  | 18.5 µM (inactive) | 71.6 µM (inactive) | 10.8 µM (inactive) | 8.45 µM (inactive) | 3.75 µM (inactive)
8 | CC1=NN(c2nc(N)nc(/C(C#N)=C\C3COc4ccccc4C3=O)n2)C(C)(C)C1 (configuration not stated) | 23.6 µM (inactive) |  | 31.6 µM (inactive) | 23.7 µM (inactive) | 18.2 µM (inactive) | 26.5 µM (inactive) | 0.0404 µM (active) | 26.2 µM (inactive) |  | 22.9 | 24.5 µM (inactive) | 18.9 µM (inactive) | 30.1 µM (inactive) | 17.9 µM (inactive) | 21.1 µM (inactive) | 14.8 µM (inactive) | 16.4 µM (inactive) |  | 18.7 µM (inactive) | 21.8 µM (inactive)
9 | Cc1sc2ccccc2[n+]1CCC(=O)O | > 100 µM (inactive) | > 100 µM (inactive) | > 100 µM (inactive) | > 100 µM (inactive) | > 100 µM (inactive) | > 100 µM (inactive) | 11.5 µM (inactive) | > 100 µM (inactive) | > 100 µM (inactive) | > 100 | > 100 µM (inactive) | > 100 µM (inactive) | > 100 µM (inactive) | > 100 µM (inactive) | > 100 µM (inactive) | > 100 µM (inactive) | > 100 µM (inactive) | > 100 µM (inactive) | > 100 µM (inactive) | 
10 | COc1cc(C2c3cc4c(cc3OC(Nc3ccccc3)C2C)OCO4)cc(OC)c1OC (configuration not stated) | 0.555 µM (active) | 0.659 µM (active) | 0.923 µM (active) | 0.381 µM (active) | 42.3 µM (inactive) | 0.396 µM (active) | 0.275 µM (active) | 0.337 µM (active) | 0.621 µM (active) | 0.494 | 0.392 µM (active) | 0.161 µM (active) | 2.8 µM (inactive) | 0.324 µM (active) | 1.91 µM (inactive) | 5.65 µM (inactive) | 0.565 µM (active) | 0.415 µM (active) |  | 0.416 µM (active)
11 | Cc1ccc(S(=O)(=O)N/N=C2\C(=O)Nc3cc(O)c(C(=O)O)cc32)cc1 | > 100 µM (inactive) | > 100 µM (inactive) | > 100 µM (inactive) | > 100 µM (inactive) | > 100 µM (inactive) | > 100 µM (inactive) |  | > 100 µM (inactive) | > 100 µM (inactive) | > 100 | > 100 µM (inactive) | > 100 µM (inactive) | > 100 µM (inactive) | > 100 µM (inactive) | > 100 µM (inactive) | > 100 µM (inactive) | > 100 µM (inactive) | > 100 µM (inactive) | > 100 µM (inactive) | > 100 µM (inactive)
12 | CCCCSC1=N/C(=C\c2ccc(N(C)C)cc2)C(NN)=N1 | > 100 µM (inactive) | > 100 µM (inactive) | > 100 µM (inactive) | > 100 µM (inactive) | > 100 µM (inactive) | > 100 µM (inactive) | > 100 µM (inactive) | > 100 µM (inactive) | > 100 µM (inactive) | > 100 | > 100 µM (inactive) | > 100 µM (inactive) | > 100 µM (inactive) | > 100 µM (inactive) | > 100 µM (inactive) | > 100 µM (inactive) | > 100 µM (inactive) |  |  | > 100 µM (inactive)
13 | CCOC(=O)Cc1csc(NC(NC(=O)OCC)(C(=O)OCC)C(F)(F)F)n1 (configuration not stated) | > 100 µM (inactive) | > 100 µM (inactive) | > 100 µM (inactive) | > 100 µM (inactive) | > 100 µM (inactive) | > 100 µM (inactive) | > 100 µM (inactive) | 16.9 µM (inactive) |  | > 100 | > 100 µM (inactive) | > 100 µM (inactive) | > 100 µM (inactive) | > 100 µM (inactive) | > 100 µM (inactive) | > 100 µM (inactive) | > 100 µM (inactive) | > 100 µM (inactive) | > 100 µM (inactive) | > 100 µM (inactive)
14 | COc1cccc(/C=N/n2c(Cc3ccccc3)n[nH]c2=O)c1 | > 47.4 µM (inactive) | > 19.7 µM (inactive) | > 100 µM (inactive) | > 100 µM (inactive) | > 73.6 µM (inactive) | > 35.4 µM (inactive) |  | 16.8 µM (inactive) | > 100 µM (inactive) | > 100 | > 100 µM (inactive) | > 100 µM (inactive) | > 100 µM (inactive) | > 100 µM (inactive) | 43 µM (inactive) | > 100 µM (inactive) | 11.2 µM (inactive) | > 100 µM (inactive) | 33.9 µM (inactive) | > 100 µM (inactive)
